Data from patent US9458165B2, “DOT1L inhibitors” (Dana-Farber Cancer Institute, Inc., priority 2014, dated 2016).

Assay: Pharmacokinetic study, intravenous 5 mg/kg
Format: in vivo
Settings: CD1 mice, 5 mg/kg, FIG. 8B
Method: Pharmacokinetic studies of the compound of Example 1 (i.e. CC-006) and previously disclosed compounds EPZ004777, CC001 (see U.S. 2014/0051654) and FED1 were performed in CD1 mice following intravenous administration, as detailed in Table 1.
Mean plasma concentration-time profiles representative of the compound of Example 1 (i.e. CC-006) after intravenous dosing (5 mg kg^−1) are shown in FIG. 8A (data represent the mean and s.d. (n=3)). […] From the pharmacokinetic properties, the compound of Example 1 (i.e. CC-006) has potential for use in treatment using intravenous administration due to its long half-life, as compared to subcutaneous administration.

## CC(C)N(C[C@H]1C[C@@H](n2ccc3c(N)ncnc32)[C@H](O)[C@@H]1O)[C@H]1C[C@@H](CCc2nc3cc(C(C)(C)C)ccc3[nH]2)C1 [CC001, reference compound]
  half-life (T1/2): longest half-life of the compounds tested
